Measured values from the supplement of paper PMC10627819.

Experiments:
Assay in all cases: fitness (endpoint OD595 vs no drug) (fraction); higher = more growth
[1] = test system: S. pneumoniae D39V
Outline: (§1)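 Fitness expresses the optical density reached at the stationary-phase transition as a fraction of the robust mean of no-drug control wells. It is capped at 1. Measurements were OD595 every 30 min for 14 h at 37 °C after inoculation of 384-well plates at OD595 0.01 (30 µl, or 55 µl for S. pneumoniae), minus the first reading.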

[2] = test system: S. aureus DSM 20231
Outline: as §1

[3] = test system: S. aureus Newman
Outline: as §1

[4] = first compound 0.001075 µg/mL, partner 0.125 µg/mL
[5] = first compound 0.001075 µg/mL, partner 0.25 µg/mL
[6] = first compound 0.001075 µg/mL, partner 0.5 µg/mL
[7] = first compound 0.002 µg/mL, partner 0.03125 µg/mL
[8] = first compound 0.002 µg/mL, partner 0.0625 µg/mL
[9] = first compound 0.002 µg/mL, partner 0.125 µg/mL
[10] = first compound 0.00215 µg/mL, partner 0.125 µg/mL
[11] = first compound 0.00215 µg/mL, partner 0.25 µg/mL
[12] = first compound 0.00215 µg/mL, partner 0.5 µg/mL
[13] = first compound 0.004 µg/mL, partner 0.03125 µg/mL
[14] = first compound 0.004 µg/mL, partner 0.0625 µg/mL
[15] = first compound 0.004 µg/mL, partner 0.125 µg/mL
[16] = first compound 0.0043 µg/mL, partner 0.125 µg/mL
[17] = first compound 0.0043 µg/mL, partner 0.25 µg/mL
[18] = first compound 0.0043 µg/mL, partner 0.5 µg/mL
[19] = first compound 0.008 µg/mL, partner 0.03125 µg/mL
[20] = first compound 0.008 µg/mL, partner 0.0625 µg/mL
[21] = first compound 0.008 µg/mL, partner 0.125 µg/mL
[22] = first compound 0.0156 µg/mL, partner 0.0625 µg/mL
[23] = first compound 0.0156 µg/mL, partner 0.125 µg/mL
[24] = first compound 0.0156 µg/mL, partner 0.25 µg/mL
[25] = first compound 0.0312 µg/mL, partner 0.0625 µg/mL
[26] = first compound 0.0312 µg/mL, partner 0.125 µg/mL
[27] = first compound 0.0312 µg/mL, partner 0.25 µg/mL
[28] = first compound 0.0625 µg/mL, partner 0.0625 µg/mL
[29] = first compound 0.0625 µg/mL, partner 0.125 µg/mL
[30] = first compound 0.0625 µg/mL, partner 0.25 µg/mL
[31] = first compound 0.0156 µg/mL, partner 0.625 µg/mL
[32] = first compound 0.0156 µg/mL, partner 1.25 µg/mL
[33] = first compound 0.0156 µg/mL, partner 2.5 µg/mL
[34] = first compound 0.0312 µg/mL, partner 0.625 µg/mL
[35] = first compound 0.0312 µg/mL, partner 1.25 µg/mL
[36] = first compound 0.0312 µg/mL, partner 2.5 µg/mL
[37] = first compound 0.0625 µg/mL, partner 0.625 µg/mL
[38] = first compound 0.0625 µg/mL, partner 1.25 µg/mL
[39] = first compound 0.0625 µg/mL, partner 2.5 µg/mL
[40] = first compound 0.0156 µg/mL, partner 0.1875 µg/mL
[41] = first compound 0.0156 µg/mL, partner 0.375 µg/mL
[42] = first compound 0.0156 µg/mL, partner 0.75 µg/mL
[43] = first compound 0.0312 µg/mL, partner 0.1875 µg/mL
[44] = first compound 0.0312 µg/mL, partner 0.375 µg/mL
[45] = first compound 0.0312 µg/mL, partner 0.75 µg/mL
[46] = first compound 0.0625 µg/mL, partner 0.1875 µg/mL
[47] = first compound 0.0625 µg/mL, partner 0.375 µg/mL
[48] = first compound 0.0625 µg/mL, partner 0.75 µg/mL
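Further: OD595 on entry to stationary phase over no-drug wells; at most 1.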

Compound: CO[C@@]12[C@H](COC(N)=O)C3=C(C(=O)C(C)=C(N)C3=O)N1C[C@@H]1N[C@@H]12 [Mitomycin C] + Cn1nnc(-c2ccc(-c3ccc(N4C[C@H](CO)OC4=O)cc3F)cn2)n1 [Tedizolid]
- fitness [1, 4]: 0.76
- fitness [1, 5]: 0.688
- fitness [1, 6]: 0.313
- fitness [1, 7]: 0.825
- fitness [1, 8]: 0.821
- fitness [1, 9]: 0.749
- fitness [1, 10]: 0.774
- fitness [1, 11]: 0.687
- fitness [1, 12]: 0.273
- fitness [1, 13]: 0.745
- fitness [1, 14]: 0.725
- fitness [1, 15]: 0.686
- fitness [1, 16]: 0.687
- fitness [1, 17]: 0.617
- fitness [1, 18]: 0.21
- fitness [1, 19]: 0.635
- fitness [1, 20]: 0.611
- fitness [1, 21]: 0.518
- fitness [2, 22]: 0.701
- fitness [2, 23]: 0.652
- fitness [2, 24]: 0.281
- fitness [2, 25]: 0.692
- fitness [2, 26]: 0.597
- fitness [2, 27]: 0.225
- fitness [2, 28]: 0.511
- fitness [2, 29]: 0.47
- fitness [2, 30]: 0.2
- fitness [3, 22]: 0.653
- fitness [3, 23]: 0.612
- fitness [3, 24]: 0.177
- fitness [3, 25]: 0.61
- fitness [3, 26]: 0.587
- fitness [3, 27]: 0.084
- fitness [3, 28]: 0.519
- fitness [3, 29]: 0.379
- fitness [3, 30]: 0.0559

Compound: CO[C@@]12[C@H](COC(N)=O)C3=C(C(=O)C(C)=C(N)C3=O)N1C[C@@H]1N[C@@H]12 [Mitomycin C] + Cc1ncc([N+](=O)[O-])n1CCO [Metronidazole]
- fitness ([1]; first compound 0.001075 µg/mL, partner 1.25 µg/mL): 0.972
- fitness ([1]; first compound 0.001075 µg/mL, partner 2.5 µg/mL): 0.974
- fitness ([1]; first compound 0.001075 µg/mL, partner 5 µg/mL): 0.93
- fitness ([1]; first compound 0.002 µg/mL, partner 1.073 µg/mL): 0.853
- fitness ([1]; first compound 0.002 µg/mL, partner 2.145 µg/mL): 0.812
- fitness ([1]; first compound 0.002 µg/mL, partner 4.29 µg/mL): 0.791
- fitness ([1]; first compound 0.00215 µg/mL, partner 1.25 µg/mL): 0.971
- fitness ([1]; first compound 0.00215 µg/mL, partner 2.5 µg/mL): 0.984
- fitness ([1]; first compound 0.00215 µg/mL, partner 5 µg/mL): 0.933
- fitness ([1]; first compound 0.004 µg/mL, partner 1.073 µg/mL): 0.802
- fitness ([1]; first compound 0.004 µg/mL, partner 2.145 µg/mL): 0.806
- fitness ([1]; first compound 0.004 µg/mL, partner 4.29 µg/mL): 0.742
- fitness ([1]; first compound 0.0043 µg/mL, partner 1.25 µg/mL): 0.857
- fitness ([1]; first compound 0.0043 µg/mL, partner 2.5 µg/mL): 0.852
- fitness ([1]; first compound 0.0043 µg/mL, partner 5 µg/mL): 0.836
- fitness ([1]; first compound 0.008 µg/mL, partner 1.073 µg/mL): 0.72
- fitness ([1]; first compound 0.008 µg/mL, partner 4.29 µg/mL): 0.735
- fitness [2, 31]: 0.775
- fitness [2, 32]: 0.873
- fitness [2, 33]: 0.799
- fitness [2, 34]: 0.756
- fitness [2, 35]: 0.782
- fitness [2, 36]: 0.779
- fitness [2, 37]: 0.593
- fitness [2, 38]: 0.606
- fitness [2, 39]: 0.643
- fitness [3, 31]: 0.75
- fitness ([3]; first compound 0.0156 µg/mL, partner 0.781 µg/mL, one replicate): 0.737
- fitness [3, 32]: 0.766
- fitness ([3]; first compound 0.0156 µg/mL, partner 1.562 µg/mL, one replicate): 0.731
- fitness [3, 33]: 0.709
- fitness ([3]; first compound 0.0156 µg/mL, partner 3.124 µg/mL, one replicate): 0.704
- fitness [3, 34]: 0.649
- fitness ([3]; first compound 0.0312 µg/mL, partner 0.781 µg/mL, one replicate): 0.703
- fitness [3, 35]: 0.698
- fitness ([3]; first compound 0.0312 µg/mL, partner 1.562 µg/mL, one replicate): 0.689
- fitness [3, 36]: 0.569
- fitness ([3]; first compound 0.0312 µg/mL, partner 3.124 µg/mL, one replicate): 0.747
- fitness [3, 37]: 0.524
- fitness ([3]; first compound 0.0625 µg/mL, partner 0.781 µg/mL, one replicate): 0.581
- fitness [3, 38]: 0.517
- fitness ([3]; first compound 0.0625 µg/mL, partner 1.562 µg/mL, one replicate): 0.625
- fitness [3, 39]: 0.369
- fitness ([3]; first compound 0.0625 µg/mL, partner 3.124 µg/mL, one replicate): 0.584

Compound: CO[C@@]12[C@H](COC(N)=O)C3=C(C(=O)C(C)=C(N)C3=O)N1C[C@@H]1N[C@@H]12 [Mitomycin C] + CN[C@H](CC(C)C)C(=O)N[C@H]1C(=O)N[C@@H](CC(N)=O)C(=O)N[C@H]2C(=O)N[C@H]3C(=O)N[C@H](C(=O)N[C@H](C(=O)O)c4cc(O)cc(O)c4-c4cc3ccc4O)[C@H](O)c3ccc(c(Cl)c3)Oc3cc2cc(c3O[C@@H]2O[C@H](CO)[C@@H](O)[C@H](O)[C@H]2O[C@H]2C[C@](C)(N)[C@H](O)[C@H](C)O2)Oc2ccc(cc2Cl)[C@H]1O [Vancomycin]
- fitness [1, 4]: 0.928
- fitness [1, 5]: 0.629
- fitness [1, 6]: 0.208
- fitness [1, 7]: 0.951
- fitness [1, 8]: 0.877
- fitness [1, 9]: 0.745
- fitness [1, 10]: 0.869
- fitness [1, 11]: 0.68
- fitness [1, 12]: 0.202
- fitness [1, 13]: 0.846
- fitness [1, 14]: 0.836
- fitness [1, 15]: 0.667
- fitness [1, 16]: 0.863
- fitness [1, 17]: 0.592
- fitness [1, 18]: 0.206
- fitness [1, 19]: 0.727
- fitness [1, 20]: 0.732
- fitness [1, 21]: 0.629
- fitness [2, 40]: 0.741
- fitness [2, 41]: 0.719
- fitness [2, 42]: 0.708
- fitness [2, 43]: 0.705
- fitness [2, 44]: 0.762
- fitness [2, 45]: 0.751
- fitness [2, 46]: 0.592
- fitness [2, 47]: 0.624
- fitness [2, 48]: 0.624
- fitness [3, 40]: 0.747
- fitness [3, 41]: 0.708
- fitness [3, 42]: 0.733
- fitness [3, 43]: 0.719
- fitness [3, 44]: 0.684
- fitness [3, 45]: 0.65
- fitness [3, 46]: 0.56
- fitness [3, 47]: 0.415
- fitness [3, 48]: 0.411
